Measured values published in patent US9562031B1, “Phenethyldihydrobenzodioxolones and methods of use” (Sequoia Sciences, Inc., priority 2015, dated 2017).
Values joined by “and” are separate entries in the source; they are usually repeats but may differ in a detail not shown here. Equal entries are not always repeated. Where two headings read alike, the source gives them in different places.

Experiments:
LOX-IMVI cells = test: antiproliferation assay, LOX-IMVI; format: cell-based; settings: Homo sapiens
Procedure: (§1) For the antiproliferation assay, NCI-H460 (large cell lung carcinoma) or M14 (amelanotic melanoma) cells were grown in RPMI-1640 with 10% FBS supplemented with L-glutamine and HEPES. Cells were seeded into 96-well plates at 5×10^2 to 5×10^4 cells/well and allowed to adhere overnight; the medium was then removed. A stock solution of test compound in DMSO was diluted in medium to generate a series of working solutions. Aliquots (100 μl) of the working solutions were then added to the appropriate test wells to expose cells to the final concentrations of compound in a total volume of 100 μl. Seven different concentrations were tested, with 2-5 wells per concentration. Camptothecin was used as a positive control; wells containing vehicle without compound were used as negative controls. Plates were kept for 72 h in a 37° C., 5% CO2 incubator. After incubation, viable cells were detected with the CELLTITER 96 AQueous Non-Radioactive Cell Proliferation Assay (Promega), and IC50 values were determined using GraphPad Prism 5 software.
Antiproliferation of several of the active compounds was tested against additional cell lines.

HCT-15 cells [1] = test: antiproliferation assay, paclitaxel-resistant HCT-15; format: cell-based; settings: Homo sapiens
Procedure: as §1
(§2) Compound 4 was tested for antiproliferation activity against several paclitaxel-resistant human cancer cell lines.

[2] = tested on: NCI-H460 (large cell lung carcinoma) cells; test: antiproliferation assay (72 h, CELLTITER 96), NCI-H460; format: cell-based, human; settings: Homo sapiens
Method in brief: (§3)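 Human M14 melanoma and NCI-H460 lung carcinoma cells in RPMI-1640/10% FBS, seeded at 5×10^2–5×10^4 cells/well and adhered overnight, then exposed to seven compound concentrations for 72 h at 37 °C. Viable cells read by CellTiter 96 AQueous (MTS); IC50 = concentration giving 50% of maximal growth inhibition.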

EKVX cells = test: antiproliferation assay, paclitaxel-resistant EKVX; format: cell-based; settings: Homo sapiens
Procedure: as §1, §2

[3] = tested on: M14 (amelanotic melanoma) cells; test: antiproliferation assay (72 h, CELLTITER 96), M14; format: cell-based, human; settings: Homo sapiens
Method in brief: as §3

[4] = tested on: NCI-H460 (lung) xenograft tumors; test: tumor growth inhibition, NCI-H460 murine xenograft model; format: in vivo, mice
Procedure: (§4) Tumor growth inhibition of compound 4 was measured in several murine xenograft models, and the results of individual experiments are listed in Table 14. Tumors were initiated by subcutaneous injection of either tumor cells from cell culture or tumor fragments from continuous in vivo passage. When tumors reached volumes between approximately 100 and 200 mm^3, the mice were divided into vehicle and treatment groups. Compound or vehicle was administered by IP injection in a volume of 5-10 mL/kg.
(§5) Changes in tumor weight (delta weights) for each treated (T) and control (C) group are calculated for each day tumors are measured by subtracting the median tumor weight on the first day of treatment (staging day) from the median tumor weight on the specified observation day. These values are used to calculate a percent T/C as follows: % T/C=(delta T/delta C)×100. The optimal T/C is the minimal value obtained after the first treatment.

[5] = tested on: NCI-H522 (lung) xenograft tumors; test: tumor growth inhibition, NCI-H522 murine xenograft model; format: in vivo, mice; settings: IP 40 mg/kg, days 0,1,2,5,6,7,10,11,12
Procedure: as §4, §5

[6] = tested on: NCI-H727 xenograft tumors; test: tumor growth inhibition, NCI-H727 murine xenograft model; format: in vivo, mice; settings: IP 40 mg/kg, days 0,1,2,5,6,7,10,11,12
Procedure: as §4, §5

HCT-15 cells [7] = test: NCI-60 panel antiproliferation, HCT-15; format: cell-based, human; settings: Homo sapiens, NCI 60-cell panel
Procedure: (§6) Bifidenone and Compound 37 were tested for antiproliferation activity against the NCI-60 panel of cancer cell lines. COMPARE analysis was then conducted to compare the activity “fingerprint” of bifidenone to those of known classes of compounds (Zhou, B.-N., Hoch, J. M., Johnson, R. K., Mattern, M. R., Eng, W.-K., Ma, J., Hecht, S. M., Newman, D. J., Kingston, D. G. I., 2000. Use of COMPARE Analysis to Discover New Natural Product Drugs: Isolation of Camptothecin and 9-Methoxycamptothecin from a New Source. Journal of Natural Products 63, 1273-1276.).

OVCAR-5 cells = test: NCI-60 panel antiproliferation, OVCAR-5; format: cell-based, human; settings: Homo sapiens, NCI 60-cell panel
Procedure: as §6

MCF-7 cells = test: NCI-60 panel antiproliferation, MCF-7; format: cell-based, human; settings: Homo sapiens, MCF7, NCI 60-cell panel
Procedure: as §6

Caki-1 cells = test: NCI-60 panel antiproliferation, Caki-1; format: cell-based, human; settings: Homo sapiens, NCI 60-cell panel
Procedure: as §6

T-47D cells = test: NCI-60 panel antiproliferation, T-47D; format: cell-based, human; settings: Homo sapiens, T47D, NCI 60-cell panel
Procedure: as §6

NCI-ADR/RES cells = test: NCI-60 panel antiproliferation, NCI-ADR/RES; format: cell-based, human; settings: Homo sapiens, NCI 60-cell panel
Procedure: as §6

HOP-92 cells = test: NCI-60 panel antiproliferation, HOP-92; format: cell-based, human; settings: Homo sapiens, NCI 60-cell panel
Procedure: as §6

UO-31 cells = test: NCI-60 panel antiproliferation, UO-31; format: cell-based, human; settings: Homo sapiens, NCI 60-cell panel
Procedure: as §6

Hs578T cells = test: NCI-60 panel antiproliferation, Hs578T; format: cell-based, human; settings: Homo sapiens, Hs-578T, NCI 60-cell panel
Procedure: as §6

SNB-75 cells = test: NCI-60 panel antiproliferation, SNB-75; format: cell-based, human; settings: Homo sapiens, NCI 60-cell panel
Procedure: as §6

HCT-116 cells = test: NCI-60 panel antiproliferation, HCT-116; format: cell-based, human; settings: Homo sapiens, NCI 60-cell panel
Procedure: as §6

SW-620 cells = test: NCI-60 panel antiproliferation, SW-620; format: cell-based, human; settings: Homo sapiens, NCI 60-cell panel
Procedure: as §6

A549 cells = test: NCI-60 panel antiproliferation, A549; format: cell-based, human; settings: Homo sapiens, NCI 60-cell panel
Procedure: as §6

MDA-MB-231 cells = test: NCI-60 panel antiproliferation, MDA-MB-231; format: cell-based, human; settings: Homo sapiens, NCI 60-cell panel
Procedure: as §6

MDA-MB-435 cells = test: NCI-60 panel antiproliferation, MDA-MB-435; format: cell-based, human; settings: Homo sapiens, NCI 60-cell panel
Procedure: as §6

IGR-OV1 cells = test: NCI-60 panel antiproliferation, IGR-OV1; format: cell-based, human; settings: Homo sapiens, IGROV-1, NCI 60-cell panel
Procedure: as §6

TK-10 cells = test: NCI-60 panel antiproliferation, TK-10; format: cell-based, human; settings: Homo sapiens, NCI 60-cell panel
Procedure: as §6

RPMI-8226 cells = test: NCI-60 panel antiproliferation, RPMI-8226; format: cell-based, human; settings: Homo sapiens, NCI 60-cell panel
Procedure: as §6

[8] = IP 30 mg/kg, days 0,1,2,3,5,6,7,8,10,11,12,13
[9] = IP 60 mg/kg, days 0,1,2,5,6,7,10,11,12

C=CC[C@H]1C[C@]2([C@H](C)Cc3cc(O)c(OC)cc3F)OCOC2=CC1=O (relative stereo) [Compound 4, 6-allyl-7a-(1-(2-fluoro-5-hydroxy-4-methoxyphenyl)propan-2-yl)-7,7a-dihydrobenzo[d][1,3]dioxol-5(6H)-one] was tested. Which IC50 (LOX-IMVI cells) did it give?
The IC50 was 0.011 µM.

What about the IC50 (HCT-15 cells [1]) of the same compound?
The IC50 was < 0.005 µM.

And the IC50 ([2]; NCI-H460, Table 3, read-out: NCI-H460 IC50)?
The IC50 was 0.015 µM.

What about the IC50 ([2]; NCI-H460, as quoted in the pharmacokinetics text, read-out: IC50 against NCI-H460 human lung cancer cells) of the same compound?
The IC50 was 0.015 µM.

And the IC50 (EKVX cells)?
The IC50 was 0.007 µM.

What about the IC50 ([3]; Table 3) of the same compound?
Its IC50 is 0.011 µM.

What about the “Maximum Mean Body Weight Loss” value [4, 8] of the same compound?
The value was 7%.

What about the “Optimal T/C” value [4, 8] of the same compound?
Its value is 42%.

What about the “Maximum Mean Body Weight Loss” value ([4]; IP 40 mg/kg, days 0,1,2,5,6,7,10,11,12 (two experiments)) of the same compound?
The value was 7%.

What about the “Optimal T/C” value ([4]; IP 40 mg/kg, days 0,1,2,5,6,7,10,11,12 (two experiments), 40 mg/kg) of the same compound?
Its value is 29% and 35%.

What about the “Maximum Mean Body Weight Loss” value [4, 9] of the same compound?
Its value is 9%.

What about the “Optimal T/C” value [4, 9] of the same compound?
Its value is 40%.

And the “Maximum Mean Body Weight Loss” value [5]?
The value was 5%.

And the “Optimal T/C” value [5]?
The value was 13%.

What about the “Maximum Mean Body Weight Loss” value [6] of the same compound?
Its value is 0%.

And the “Optimal T/C” value [6]?
The value was 30%.

What does the source list for C=CC[C@H]1C[C@]2([C@@H](C)Cc3ccc(OC)c(F)c3)OCOC2=CC1=O [Compound 37, (6S,7aR)-6-allyl-7a-((S)-1-(3-fluoro-4-methoxyphenyl)propan-2-yl)-7,7a-dihydrobenzo[d][1,3]dioxol-5(6H)-one]?
IC50 (HCT-15 cells [7]): 0.056 µM; IC50 (OVCAR-5 cells): 0.119 µM; IC50 (MCF-7 cells): 0.063 µM; IC50 (Caki-1 cells): 0.097 µM; IC50 (T-47D cells): > 10 µM; IC50 (NCI-ADR/RES cells): 0.047 µM; IC50 (HOP-92 cells): > 10 µM; IC50 (UO-31 cells): 0.065 µM; IC50 (Hs578T cells): 0.072 µM; IC50 (SNB-75 cells): 0.049 µM; IC50 ([2]; NCI-H460, Table 4, read-out: NCI-H460 IC50): 0.085 µM; IC50 (HCT-116 cells): 0.115 µM; IC50 (SW-620 cells): 0.047 µM; IC50 (A549 cells): 0.055 µM; IC50 (MDA-MB-231 cells): 0.837 µM; IC50 (MDA-MB-435 cells): 0.028 µM; IC50 (IGR-OV1 cells): 0.063 µM; IC50 (TK-10 cells): 0.107 µM; IC50 ([3]; Table 4): 0.008 µM; IC50 (RPMI-8226 cells): 0.074 µM
